Laboratory results taken from patent US20030032003A1, “IN VIVO SELECTION” (priority 2000, published 2003).

Tests used:
Hprt +/+ mice = experiment: Biochemical analysis of mouse serum after 6TG; format: in vivo; conditions: 25 mg/kg single i.p., serum 14 days after treatment
Description: (§1) Serum biochemistry parameters analyzed included blood urea nitrogen (BUN), aspartate amino transferase (AST), alanine amino transferase (ALT), creatine kinase (CK), and alkaline phosphatase (AP). The analyses were performed at Tufts University Veterinary Medical Diagnosis Laboratory with the chemical analyser Hitachi 747. Blood was collected from the posterior vena cava of Hprt deficient mice that were either treated with water, 25, 500, or 720 mg/kg 6TG i.p. and wildtype mice administered 25 mg/kg 6TG.
(§2) Hprt wildtype mice were treated with the sublethal dose of 25 mg/kg 6TG and Hprt mutant mice were treated with the sublethal doses of 25, 500 and 750 mg/kg 6TG. Serum samples taken 14 days after treatment were evaluated for the levels of blood urea nitrogen (BUN), aspartate amino transferase (AST), alanine amino transferase (ALT), creatine kinase (CK) and alkaline phosphatase (AP). Elevated BUN is associated with dehydratation and/or renal insufficiency. Elevated activities of ALT and AST are characteristic for liver damage particularly necrosis, cirrhosis and/or hepatitis and also muscle trauma or myocardial infarction or myositis. Elevated AP is associated mostly with increased bone marrow metabolism and also with hapatocellular damage during hepatitis. CK is predominantly located in muscles and therefore its increased activities are consequence of muscular trauma, myocardial infarction or myopathic disorders.

Hprt −/− mice [1] = experiment: Histopathological analysis of mouse tissues after 6TG
Hprt −/− mice [2] = experiment: Biochemical analysis of mouse serum after 6TG; format: in vivo; conditions: serum 14 days after treatment
Description: as §1
as §2, with “Hprt wildtype mice were treated with the sublethal dose of 25 mg/kg 6TG and Hprt mutant mice were treated with the sublethal doses of 25, 500 and 750 mg/kg 6TG.” left out

[3] = system: Hprt −/− (Hprt deficient) mice; experiment: Acute toxicity of 6TG, approximate lethal dose; conditions: for body weight, percentage of the body weight before the experiment / survival: Hprt −/−, 14 days
[4] = Hprt −/−, 6TG lethal 1148-2561 mg/kg, 3 mice
[5] = Hprt −/−, 6TG sublethal 25-720 mg/kg, 11 mice

Nc1nc(S)c2[nH]cnc2n1 [6TG, 2-amino-6-merkaptopurine]
ALT (Hprt +/+ mice): 197 ± 66.8 u/l
AP (Hprt +/+ mice): 50.0 ± 33.4 u/l
AST (Hprt +/+ mice): 256.3 ± 73.9 u/l
BUN (Hprt +/+ mice): 45.0 ± 24.6 mg/dL
CK (Hprt +/+ mice): 73.3 ± 13.9 u/l
hyperplasia dose below doses causing toxicity (Hprt −/− mice [1]; Hprt deficient animals): 40 fold
dose at which liver necrosis appears (Hprt −/− mice [1]; Hprt deficient mice): ≥ 507 mg/kg
Kidneys Glomerulopathy, severity grade (Hprt −/− mice [1]; Hprt −/−, 25 mg/kg i.p.): 1
Kidneys Intersticial inflamation, severity grade (Hprt −/− mice [1]; Hprt −/−, 25 mg/kg i.p.): 2
Liver Centrilobular hypertrophy, severity grade (Hprt −/− mice [1]; Hprt −/−, 25 mg/kg i.p.): 3
Bone marrow Hypercellular, severity grade (Hprt −/− mice [1]; Hprt −/−, 50 mg/kg i.p.): 1.0 ± 1.0
Liver Centrilobular hypertrophy, severity grade (Hprt −/− mice [1]; Hprt −/−, 50 mg/kg i.p.): 1.5 ± 0.5
Liver Fatty change, severity grade (Hprt −/− mice [1]; Hprt −/−, 50 mg/kg i.p.): 1.0 ± 1.0
Bone marrow Hypercellular, severity grade (Hprt −/− mice [1]; Hprt −/−, 100 mg/kg i.p.): 1
Liver Centrilobular hypertrophy, severity grade (Hprt −/− mice [1]; Hprt −/−, 100 mg/kg i.p.): 2
Liver Extramedullary hematopoesis, severity grade (Hprt −/− mice [1]; Hprt −/−, 100 mg/kg i.p.): 1
Liver Fatty change, severity grade (Hprt −/− mice [1]; Hprt −/−, 100 mg/kg i.p.): 1
Bone marrow Hypercellular, severity grade (Hprt −/− mice [1]; Hprt −/−, 150 mg/kg i.p.): 2
Kidneys Glomerulopathy, severity grade (Hprt −/− mice [1]; Hprt −/−, 150 mg/kg i.p.): 3
Kidneys Intersticial inflamation, severity grade (Hprt −/− mice [1]; Hprt −/−, 150 mg/kg i.p.): 2
Kidneys Tubule basophilia, severity grade (Hprt −/− mice [1]; Hprt −/−, 150 mg/kg i.p.): 1
Kidneys Tubule dilatation, severity grade (Hprt −/− mice [1]; Hprt −/−, 150 mg/kg i.p.): 2
Liver Centrilobular hypertrophy, severity grade (Hprt −/− mice [1]; Hprt −/−, 150 mg/kg i.p.): 2
Liver Extramedullary hematopoesis, severity grade (Hprt −/− mice [1]; Hprt −/−, 150 mg/kg i.p.): 1
Liver Fatty change, severity grade (Hprt −/− mice [1]; Hprt −/−, 150 mg/kg i.p.): 3
Bone marrow Hypercellular, severity grade (Hprt −/− mice [1]; Hprt −/−, 225 mg/kg i.p.): 2
Kidneys Glomerulopathy, severity grade (Hprt −/− mice [1]; Hprt −/−, 225 mg/kg i.p.): 2
Kidneys Intersticial inflamation, severity grade (Hprt −/− mice [1]; Hprt −/−, 225 mg/kg i.p.): 2
Kidneys Tubule basophilia, severity grade (Hprt −/− mice [1]; Hprt −/−, 225 mg/kg i.p.): 2
Kidneys Tubule dilatation, severity grade (Hprt −/− mice [1]; Hprt −/−, 225 mg/kg i.p.): 2
Liver Extramedullary hematopoesis, severity grade (Hprt −/− mice [1]; Hprt −/−, 225 mg/kg i.p.): 1
Liver Fatty change, severity grade (Hprt −/− mice [1]; Hprt −/−, 225 mg/kg i.p.): 2
Bone marrow Hypercellular, severity grade (Hprt −/− mice [1]; Hprt −/−, 338 mg/kg i.p.): 1
Kidneys Glomerulopathy, severity grade (Hprt −/− mice [1]; Hprt −/−, 338 mg/kg i.p.): 1
Kidneys Intersticial inflamation, severity grade (Hprt −/− mice [1]; Hprt −/−, 338 mg/kg i.p.): 2
Kidneys Tubule basophilia, severity grade (Hprt −/− mice [1]; Hprt −/−, 338 mg/kg i.p.): 1
Kidneys Tubule dilatation, severity grade (Hprt −/− mice [1]; Hprt −/−, 338 mg/kg i.p.): 1
Liver Centrilobular hypertrophy, severity grade (Hprt −/− mice [1]; Hprt −/−, 338 mg/kg i.p.): 1
Liver Extramedullary hematopoesis, severity grade (Hprt −/− mice [1]; Hprt −/−, 338 mg/kg i.p.): 1
Liver Fatty change, severity grade (Hprt −/− mice [1]; Hprt −/−, 338 mg/kg i.p.): 2
Spleen Lymphoid depletion, severity grade (Hprt −/− mice [1]; Hprt −/−, 338 mg/kg i.p.): 1
Bone marrow Hypercellular, severity grade (Hprt −/− mice [1]; Hprt −/−, 507 mg/kg i.p.): 1.5 ± 0.5
Kidneys Tubule basophilia, severity grade (Hprt −/− mice [1]; Hprt −/−, 507 mg/kg i.p.): 1.5 ± 0.5
Kidneys Tubule dilatation, severity grade (Hprt −/− mice [1]; Hprt −/−, 507 mg/kg i.p.): 0.5 ± 0.5
Liver Atrophy necrosis, severity grade (Hprt −/− mice [1]; Hprt −/−, 507 mg/kg i.p.): 1.0 ± 0.0
Liver Centrilobular hypertrophy, severity grade (Hprt −/− mice [1]; Hprt −/−, 507 mg/kg i.p.): 2.0 ± 0.0
Liver Extramedullary hematopoesis, severity grade (Hprt −/− mice [1]; Hprt −/−, 507 mg/kg i.p.): 1.5 ± 0.5
Liver Fatty change, severity grade (Hprt −/− mice [1]; Hprt −/−, 507 mg/kg i.p.): 2.5 ± 0.5
Bone marrow Hypercellular, severity grade (Hprt −/− mice [1]; Hprt −/−, 720 mg/kg i.p.): 1.5 ± 0.5
Kidneys Glomerulopathy, severity grade (Hprt −/− mice [1]; Hprt −/−, 720 mg/kg i.p.): 0.5 ± 0.5
Kidneys Intersticial inflamation, severity grade (Hprt −/− mice [1]; Hprt −/−, 720 mg/kg i.p.): 1.5 ± 0.5
Kidneys Tubule basophilia, severity grade (Hprt −/− mice [1]; Hprt −/−, 720 mg/kg i.p.): 1.5 ± 0.5
Kidneys Tubule dilatation, severity grade (Hprt −/− mice [1]; Hprt −/−, 720 mg/kg i.p.): 1.5 ± 0.5
Liver Atrophy necrosis, severity grade (Hprt −/− mice [1]; Hprt −/−, 720 mg/kg i.p.): 0.5 ± 0.5
Liver Centrilobular hypertrophy, severity grade (Hprt −/− mice [1]; Hprt −/−, 720 mg/kg i.p.): 1.0 ± 0.0
Liver Extramedullary hematopoesis, severity grade (Hprt −/− mice [1]; Hprt −/−, 720 mg/kg i.p.): 1.0 ± 0.0
Liver Fatty change, severity grade (Hprt −/− mice [1]; Hprt −/−, 720 mg/kg i.p.): 1.5 ± 0.5
Spleen Lymphoid depletion, severity grade (Hprt −/− mice [1]; Hprt −/−, 720 mg/kg i.p.): 0.5 ± 0.5
Bone marrow Depletion, average of lesion severity grade (Hprt −/− mice [1]; [4]): 2.3 ± 0.6
Bone marrow Necrosis, average of lesion severity grade (Hprt −/− mice [1]; [4]): 3.0 ± 0.0
Gastric epithelium Atrophy, average of lesion severity grade (Hprt −/− mice [1]; [4]): 0.6 ± 0.6
Intestinal epithelium Atrophy, average of lesion severity grade (Hprt −/− mice [1]; [4]): 0.6 ± 0.6
Kidneys Tubule dilatation, average of lesion severity grade (Hprt −/− mice [1]; [4]): 0.3 ± 0.6
Liver Atrophy necrosis, average of lesion severity grade (Hprt −/− mice [1]; [4]): 1.3 ± 0.6
Liver Centrilobular hypertrophy, average of lesion severity grade (Hprt −/− mice [1]; [4]): 1.0 ± 1.7
Liver Extramedullary hematopoesis, average of lesion severity grade (Hprt −/− mice [1]; [4]): 0.3 ± 0.6
Liver Fatty change, average of lesion severity grade (Hprt −/− mice [1]; [4]): 3.3 ± 0.6
Spleen Lymphoid depletion, average of lesion severity grade (Hprt −/− mice [1]; [4]): 3.7 ± 0.6
Spleen Necrosis, average of lesion severity grade (Hprt −/− mice [1]; [4]): 2.0 ± 1.7
Bone marrow Hypercellular, average of lesion severity grade (Hprt −/− mice [1]; [5]): 1.2 ± 0.6
Kidneys Glomerulopathy, average of lesion severity grade (Hprt −/− mice [1]; [5]): 1.0 ± 1.0
Kidneys Intersticial inflamation, average of lesion severity grade (Hprt −/− mice [1]; [5]): 1.5 ± 1.0
Kidneys Tubule basophilia, average of lesion severity grade (Hprt −/− mice [1]; [5]): 0.9 ± 0.8
Kidneys Tubule dilatation, average of lesion severity grade (Hprt −/− mice [1]; [5]): 0.9 ± 0.9
Liver Atrophy necrosis, average of lesion severity grade (Hprt −/− mice [1]; [5]): 0.2 ± 0.4
Liver Centrilobular hypertrophy, average of lesion severity grade (Hprt −/− mice [1]; [5]): 1.2 ± 0.8
Liver Extramedullary hematopoesis, average of lesion severity grade (Hprt −/− mice [1]; [5]): 0.8 ± 0.5
Liver Fatty change, average of lesion severity grade (Hprt −/− mice [1]; [5]): 1.6 ± 0.9
Spleen Lymphoid depletion, average of lesion severity grade (Hprt −/− mice [1]; [5]): 02 ± 0.4
ALT (Hprt −/− mice [2]; 25 mg/kg single i.p.): 28.7 ± 14.9 u/l
AP (Hprt −/− mice [2]; 25 mg/kg single i.p.): 78.7 ± 22.5 u/l
AST (Hprt −/− mice [2]; 25 mg/kg single i.p.): 53.3 ± 17.5 u/l
BUN (Hprt −/− mice [2]; 25 mg/kg single i.p.): 18.5 ± 0.6 mg/dL
CK (Hprt −/− mice [2]; 25 mg/kg single i.p.): 67.7 ± 41.2 u/l
ALT (Hprt −/− mice [2]; 500 mg/kg single i.p.): 14.3 ± 3.5 u/l
AP (Hprt −/− mice [2]; 500 mg/kg single i.p.): 71.0 ± 38.0 u/l
AST (Hprt −/− mice [2]; 500 mg/kg single i.p.): 50. ± 11.8 u/l
BUN (Hprt −/− mice [2]; 500 mg/kg single i.p.): 18.0 ± 1.0 mg/dL
CK (Hprt −/− mice [2]; 500 mg/kg single i.p.): 52.0 ± 23.3 u/l
ALT (Hprt −/− mice [2]; 720 mg/kg single i.p.): 13.7 ± 1.5 u/l
AP (Hprt −/− mice [2]; 720 mg/kg single i.p.): 78.7 ± 20.5 u/l
AST (Hprt −/− mice [2]; 720 mg/kg single i.p.): 43.3 ± 14.0 u/l
BUN (Hprt −/− mice [2]; 720 mg/kg single i.p.): 20.0 ± 2.7 mg/dL
CK (Hprt −/− mice [2]; 720 mg/kg single i.p.): 37.3 ± 11.6 u/l
approximate lethal dose ([3]; Hprt −/− animals, single i.p.): 1148 mg/kg
increase of approximate lethal dose over the wildtype strain ([3]; Hprt −/− vs wildtype): 23 fold
body weight, percentage of the body weight before the experiment ([3]; 25 mg/kg single i.p.): 101%
survival ([3]; 25 mg/kg single i.p.): surv (surv, animals survived the 14 days period)
body weight, percentage of the body weight before the experiment ([3]; 50 mg/kg single i.p.): 102%
survival ([3]; 50 mg/kg single i.p.): surv (surv, animals survived the 14 days period)
body weight, percentage of the body weight before the experiment ([3]; 100 mg/kg single i.p.): 103%
survival ([3]; 100 mg/kg single i.p.): surv (surv, animals survived the 14 days period)
body weight, percentage of the body weight before the experiment ([3]; 150 mg/kg single i.p.): 101%
survival ([3]; 150 mg/kg single i.p.): surv (surv, animals survived the 14 days period)
body weight, percentage of the body weight before the experiment ([3]; 225 mg/kg single i.p.): 100%
survival ([3]; 225 mg/kg single i.p.): surv (surv, animals survived the 14 days period)
body weight, percentage of the body weight before the experiment ([3]; 338 mg/kg single i.p.): 101%
survival ([3]; 338 mg/kg single i.p.): surv (surv, animals survived the 14 days period)
body weight, percentage of the body weight before the experiment ([3]; 508 mg/kg single i.p.): 99%
survival ([3]; 508 mg/kg single i.p.): surv (surv, animals survived the 14 days period)
body weight, percentage of the body weight before the experiment ([3]; 720 mg/kg single i.p.): 101%
survival ([3]; 720 mg/kg single i.p.): surv (surv, animals survived the 14 days period)
body weight, percentage of the body weight before the experiment ([3]; 1148 mg/kg single i.p.): 69%
survival ([3]; 1148 mg/kg single i.p.): 8.5 days
body weight, percentage of the body weight before the experiment ([3]; 1714 mg/kg single i.p.): 93%
survival ([3]; 1714 mg/kg single i.p.): 4 days
body weight, percentage of the body weight before the experiment ([3]; 2571 mg/kg single i.p.): 95%
survival ([3]; 2571 mg/kg single i.p.): 4 days
